The text below walks through data of ChEMBL document CHEMBL1201862, “PubChem BioAssay data set” (2004).

Among the test systems are K562; MDA-MB-231; U-251; OVCAR-8; UACC-62; HT-29; OVCAR-5; HCT-15; 786-0; BT-549; MOLT-4; NCI-H460; SW-620; Hs-578T; RPMI-8226; NCI/ADR-RES; HCC 2998.
Holding throughout (test): NCI anticancer screen, dose series, 48 h

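Following 48 hours of exposure in 96-well plates, responses at five concentrations were used to interpolate endpoints linearly. GI50 = concentration required for 50% inhibition of growth.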 Active and inactive are the calls of the source. No stated cut-off is given here; in the data, active = GI50 up to about 1.1 µM and inactive = higher.

As to `CN(C)CCNCCN`, the GI50 in the assay with K562, in the assay on MDA-MB-231, with U-251, in the assay on OVCAR-8, in the assay on UACC-62 and in the assay on HT-29 was > 100 µM (inactive) throughout. The GI50 in the assay with OVCAR-5 was > 100 µM (inactive); in the assay with HCT-15, more than 100 µM; in the assay with 786-0 it was > 100 µM (inactive); in the assay with BT-549, > 100 µM (inactive); in the assay on MOLT-4, > 100 µM (inactive); in the assay with NCI-H460, > 100 µM (inactive). Moreover, the GI50 with SW-620, with Hs-578T, with RPMI-8226 and with NCI/ADR-RES was > 100 µM (inactive) in each case.

Take `Cn1c(=S)c2nc(SCCCc3ccccc3)[nH]c2n(C)c1=O`: the GI50 in the assay with K562 is 19.7 µM (inactive); in the assay on MDA-MB-231, 42.5 µM (inactive); in the assay on U-251, 23.2 µM (inactive); in the assay on OVCAR-8, 28.2 µM (inactive); in the assay with UACC-62 it was 26.2 µM (inactive); with HT-29 it was 22.8 µM (inactive). For the same compound, the GI50 in the assay with OVCAR-5 was 20.7 µM (inactive); with HCT-15 it was 29.8 µM; in the assay with 786-0 it was 25.1 µM (inactive); in the assay on BT-549, 45.1 µM (inactive); with MOLT-4, 13.5 µM (inactive); with NCI-H460 it was 7.14 µM (inactive). The GI50 in the assay with SW-620 is 36.4 µM (inactive); with Hs-578T, > 100 µM (inactive); in the assay on RPMI-8226, 15.1 µM (inactive); with NCI/ADR-RES it was 22.3 µM (inactive).

As to `Cc1cc(C)c(O)c(Cc2cccc(Cc3cc(C)cc(C)c3O)c2O)c1`, the GI50 in the assay with K562 is 35.9 µM (inactive); with MDA-MB-231, > 100 µM (inactive); in the assay with U-251, > 100 µM (inactive); with OVCAR-8, > 100 µM (inactive); with UACC-62, > 100 µM (inactive); in the assay on HT-29, > 100 µM (inactive). The GI50 was > 100 µM (inactive) with OVCAR-5; more than 100 µM with HCT-15; > 100 µM (inactive) with 786-0; > 100 µM (inactive) in the assay on BT-549; > 100 µM (inactive) in the assay with MOLT-4; > 100 µM (inactive) in the assay with NCI-H460. Further, the GI50 with SW-620, in the assay with Hs-578T, in the assay with RPMI-8226 and in the assay with NCI/ADR-RES was > 100 µM (inactive) throughout.

Take `CSc1nc2c(c(=O)[nH]1)N=C(c1ccccc1)CC(c1ccccc1)N2` (stereo not given): the GI50 in the assay with K562 is 23.4 µM (inactive); in the assay with MDA-MB-231 it was 18.5 µM (inactive); in the assay on HCC 2998, 29.3 µM (inactive); in the assay with U-251 it was 34 µM (inactive); in the assay with OVCAR-8, 28 µM (inactive); with UACC-62 it was 23.6 µM (inactive). For the same compound, the GI50 is 30.4 µM (inactive) in the assay with HT-29; 31.3 µM (inactive) in the assay on OVCAR-5; 38.5 µM (inactive) in the assay on 786-0; 28.5 µM (inactive) with BT-549; 18.9 µM (inactive) in the assay with MOLT-4; 13.4 µM (inactive) in the assay with NCI-H460. For the same compound, the results for the GI50 with SW-620, with RPMI-8226 and with NCI/ADR-RES were 50.8 µM (inactive), 28.5 µM (inactive) and 24.4 µM (inactive), respectively.

Regarding `O=c1[nH]nc(Cc2ccccc2)n1O`, the GI50 in the assay with K562, in the assay on MDA-MB-231, in the assay with U-251, with OVCAR-8, in the assay with UACC-62 and with HT-29 was > 100 µM (inactive) each time. Moreover, the GI50 in the assay on 786-0, with BT-549, with MOLT-4, in the assay with SW-620, in the assay on Hs-578T and with RPMI-8226 was > 100 µM (inactive) throughout. Besides, the GI50 with NCI/ADR-RES is > 100 µM (inactive).

`Cn1c(=O)c2c(ncn2Cc2ccc(O)c([N+](=O)[O-])c2)n(C)c1=O`: the GI50 in the assay with K562, with MDA-MB-231, with U-251, with OVCAR-8, in the assay on UACC-62 and in the assay with HT-29 was > 100 µM (inactive) throughout. Moreover, the GI50 in the assay with OVCAR-5 is > 100 µM (inactive); with HCT-15 it was more than 100 µM; in the assay on 786-0 it was > 100 µM (inactive); in the assay on BT-549, > 100 µM (inactive); with MOLT-4, > 100 µM (inactive); with NCI-H460, > 100 µM (inactive). The GI50 with SW-620, with Hs-578T, in the assay with RPMI-8226 and with NCI/ADR-RES was > 100 µM (inactive) in each case.

As for `O=CNCCCN1CCN(CCCNC=O)CC1`, the GI50 with K562, in the assay on MDA-MB-231, in the assay with HCC 2998, in the assay with U-251, in the assay on OVCAR-8 and in the assay with UACC-62 was > 100 µM (inactive) throughout. The GI50 is > 100 µM (inactive) in the assay with HT-29; > 100 µM (inactive) in the assay with OVCAR-5; more than 100 µM with HCT-15; > 100 µM (inactive) in the assay with 786-0; > 100 µM (inactive) in the assay on BT-549; > 100 µM (inactive) with MOLT-4. Moreover, the GI50 with SW-620, with RPMI-8226 and with NCI/ADR-RES was > 100 µM (inactive) in each case.

Take `CC1CC/C(=C\c2ccc(F)cc2)C2=C1C(c1ccc(F)cc1)NC(=S)N2` (stereo not given): the GI50 was 35.5 µM (inactive) with K562; 47.8 µM (inactive) with MDA-MB-231; 61.4 µM (inactive) with U-251; 86.7 µM (inactive) in the assay on OVCAR-8; > 100 µM (inactive) in the assay on UACC-62; 29 µM (inactive) in the assay on HT-29. For the same compound, the GI50 with HCT-15 was 41 µM; in the assay with 786-0 it was 63.4 µM (inactive); with BT-549, 35.1 µM (inactive); in the assay with MOLT-4, 49.2 µM (inactive); with NCI-H460 it was 20.4 µM (inactive); with SW-620, 80.4 µM (inactive). Moreover, the GI50 in the assay with Hs-578T was > 100 µM (inactive); in the assay with RPMI-8226 it was 18.1 µM (inactive); in the assay with NCI/ADR-RES, 53.6 µM (inactive).

On to `CCC1(c2ccc(OC)c(OC)c2)CCN2C(=O)C(O)CC21` (stereo not given), for which the GI50 in the assay with K562, in the assay on MDA-MB-231, in the assay with HCC 2998, in the assay with U-251, in the assay with UACC-62 and in the assay on HT-29 was > 100 µM (inactive) throughout. The GI50 is > 100 µM (inactive) with OVCAR-5; more than 100 µM in the assay on HCT-15; > 100 µM (inactive) in the assay on 786-0; > 100 µM (inactive) in the assay with BT-549; > 100 µM (inactive) with MOLT-4; > 100 µM (inactive) in the assay on NCI-H460. In addition, the GI50 in the assay on SW-620 and in the assay on NCI/ADR-RES was > 100 µM (inactive) throughout.

`CSC(=S)Nc1cc(C)ccn1`: the GI50 with K562 was 62.5 µM (inactive); in the assay with MDA-MB-231, 33.1 µM (inactive); in the assay with HCC 2998, > 100 µM (inactive); in the assay with U-251, 67.8 µM (inactive); with OVCAR-8, > 100 µM (inactive); with UACC-62, > 100 µM (inactive). The GI50 in the assay with HT-29 was > 100 µM (inactive); in the assay with OVCAR-5, > 100 µM (inactive); with HCT-15 it was more than 100 µM; in the assay on 786-0 it was 75.2 µM (inactive); in the assay on MOLT-4, > 100 µM (inactive); in the assay on NCI-H460, 85.9 µM (inactive). The GI50 with SW-620 is > 100 µM (inactive); with Hs-578T, > 100 µM (inactive); in the assay on RPMI-8226, 97.7 µM (inactive); in the assay with NCI/ADR-RES, 60.5 µM (inactive).

Take `COc1ccc(C(=O)/C=C/c2ccc(OCCSCCCCCCCCCCSCCOc3ccc(/C=C/C(=O)c4ccc(OC)c(OC)c4)cc3)cc2)cc1OC`: the GI50 in the assay with K562, in the assay with MDA-MB-231, in the assay on HCC 2998, in the assay with OVCAR-8, in the assay with UACC-62 and in the assay with HT-29 was > 100 µM (inactive) each time. The GI50 with HCT-15 was more than 100 µM; in the assay with 786-0, > 100 µM (inactive); in the assay with BT-549 it was > 100 µM (inactive); with MOLT-4 it was > 100 µM (inactive); in the assay with NCI-H460, > 100 µM (inactive); in the assay on SW-620 it was > 100 µM (inactive). Besides, the GI50 in the assay on Hs-578T and in the assay with RPMI-8226 was > 100 µM (inactive) in each case.

As for `CC(C)=CCC/C(C)=C/Cc1c2c(c3oc(-c4ccc(O)c(O)c4)c(O)c(=O)c3c1O)C=CC(C)(C)O2`, the GI50 was 2.44 µM (inactive) in the assay on K562; 5.74 µM (inactive) with MDA-MB-231; 3.21 µM (inactive) in the assay on U-251; 2.05 µM (inactive) in the assay on OVCAR-8; 5.31 µM (inactive) in the assay with UACC-62; 2.71 µM (inactive) in the assay on HT-29. The GI50 is 7.18 µM (inactive) in the assay with OVCAR-5; 2.1 µM in the assay with HCT-15; 1.85 µM (inactive) in the assay on 786-0; 7.66 µM (inactive) in the assay with BT-549; 1.77 µM (inactive) in the assay on MOLT-4; 3.37 µM (inactive) with NCI-H460. Also, the GI50 is 9.46 µM (inactive) with Hs-578T, 1.82 µM (inactive) in the assay with RPMI-8226 and 5.32 µM (inactive) in the assay on NCI/ADR-RES.

Consider `C#CCOC(=O)C(N)CS` (stereo not given), for which the GI50 with K562, in the assay on MDA-MB-231, with U-251, in the assay on OVCAR-8, in the assay on UACC-62 and in the assay on HT-29 was > 100 µM (inactive) each time. Besides, the GI50 with OVCAR-5, in the assay with 786-0, in the assay on BT-549, in the assay on MOLT-4, in the assay on SW-620 and in the assay on Hs-578T was > 100 µM (inactive) in each case. Besides, the GI50 in the assay on RPMI-8226 and with NCI/ADR-RES was > 100 µM (inactive) in each case.
